In PubChem BioAssay (NCI):
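Following 48 hours of exposure in 96-well plates, responses at five concentrations were used to interpolate endpoints linearly. GI50: concentration for 50% inhibition of growth. TGI is the concentration that stops growth completely.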

Tests used:
Assay in all cases: DTP human tumour cell line panel, 48 h
K-562 leukemia = system: K-562 leukemia
SR leukemia = system: SR leukemia
ACHN renal = system: ACHN renal
MDA-MB-435 = system: MDA-MB-435
HT29 colon = system: HT29 colon
A549 NSCLC = system: A549 NSCLC
SK-OV-3 ovarian = system: SK-OV-3 ovarian
A498 renal = system: A498 renal
SK-MEL-28 melanoma = system: SK-MEL-28 melanoma
SK-MEL-5 melanoma = system: SK-MEL-5 melanoma
OVCAR-5 ovarian = system: OVCAR-5 ovarian
M14 melanoma = system: M14 melanoma
NCI-H226 lung = system: NCI-H226 lung
HOP-62 NSCLC = system: HOP-62 NSCLC
U251 CNS = system: U251 CNS
RXF 393 renal = system: RXF 393 renal
CAKI-1 renal = system: CAKI-1 renal
KM12 colon = system: KM12 colon
NCI-H460 lung = system: NCI-H460 lung
MCF7 breast = system: MCF7 breast
SN12C renal = system: SN12C renal
IGROV1 ovarian = system: IGROV1 ovarian
SW-620 colon = system: SW-620 colon
SF-295 CNS = system: SF-295 CNS
HOP-92 NSCLC = system: HOP-92 NSCLC
HCT-116 colon = system: HCT-116 colon
LOX IMVI melanoma = system: LOX IMVI melanoma
HCT-15 colon = system: HCT-15 colon
SNB-75 CNS = system: SNB-75 CNS

COc1cc(-c2ccc(NC(=O)NC3CC3)c(OC)c2)ccc1NC(=O)NC1CC1
GI50 (K-562 leukemia): 2.45 µM | TGI (K-562 leukemia): > 100 µM | GI50 (SR leukemia): 0.446 µM | GI50 (ACHN renal): 7.05 µM | TGI (ACHN renal): > 100 µM | GI50 (MDA-MB-435): 9.18 µM | TGI (MDA-MB-435): > 100 µM | GI50 (HT29 colon): 5.81 µM | TGI (HT29 colon): > 100 µM | GI50 (A549 NSCLC): 3.89 µM | TGI (A549 NSCLC): > 100 µM | GI50 (SK-OV-3 ovarian): 23.8 µM | TGI (SK-OV-3 ovarian): > 100 µM | GI50 (A498 renal): 19.2 µM | TGI (A498 renal): > 100 µM | GI50 (SK-MEL-28 melanoma): > 29.3 µM | TGI (SK-MEL-28 melanoma): > 100 µM | GI50 (SK-MEL-5 melanoma): 4.84 µM | TGI (SK-MEL-5 melanoma): > 100 µM | GI50 (OVCAR-5 ovarian): > 100 µM | TGI (OVCAR-5 ovarian): > 100 µM | GI50 (M14 melanoma): > 100 µM | TGI (M14 melanoma): > 100 µM | GI50 (NCI-H226 lung): 7.25 µM | TGI (NCI-H226 lung): > 100 µM | GI50 (HOP-62 NSCLC): 28.8 µM | TGI (HOP-62 NSCLC): > 100 µM | GI50 (U251 CNS): 3.11 µM | TGI (U251 CNS): > 69.3 µM | GI50 (RXF 393 renal): 1.16 µM | TGI (RXF 393 renal): 4.42 µM | GI50 (CAKI-1 renal): 6.2 µM | TGI (CAKI-1 renal): > 60.7 µM | GI50 (KM12 colon): 5.28 µM | TGI (KM12 colon): > 100 µM | GI50 (NCI-H460 lung): 1.51 µM | TGI (NCI-H460 lung): 15.7 µM | GI50 (MCF7 breast): 5.69 µM | TGI (MCF7 breast): > 100 µM | GI50 (SN12C renal): 18.8 µM | TGI (SN12C renal): > 100 µM | GI50 (IGROV1 ovarian): 5.83 µM | TGI (IGROV1 ovarian): 52.9 µM | GI50 (SW-620 colon): 5.39 µM | TGI (SW-620 colon): > 100 µM | GI50 (SF-295 CNS): 4.36 µM | TGI (SF-295 CNS): > 100 µM | GI50 (HOP-92 NSCLC): 7.66 µM | TGI (HOP-92 NSCLC): > 67.7 µM | GI50 (HCT-116 colon): 3.22 µM | TGI (HCT-116 colon): > 100 µM | GI50 (LOX IMVI melanoma): 3.15 µM | TGI (LOX IMVI melanoma): > 83.8 µM | GI50 (HCT-15 colon): 1.1 µM | TGI (HCT-15 colon): > 100 µM | GI50 (SNB-75 CNS): 12.1 µM | TGI (SNB-75 CNS): > 85.8 µM
